Laboratory results reported in patent publication US10253049B2, “Boronic acid derivatives” (MERCK PATENT GMBH, priority 2014, dated 2019).

Columns and labels:
[1] = biological target: LMP7 (purified human immunoproteasome) (Homo sapiens, UniProt P28062); assay: Determination of LMP7 activity (fluorescence intensity assay, Suc-LLVY-AMC); type: biochemical
Procedure: Determination of LMP7 Activity
Measurement of LMP7 inhibition is performed in 384 well format based on fluorescence intensity assay.
(§1) Purified human immunoproteasome (0.25 nM) and serial diluted compounds in DMSO (range of concentrations from 30 μM to 15 pM) or controls are incubated for 20 minutes or 120 minutes (long incubation) at 25° C. in assay buffer containing 50 mM Tris pH 7.4, 0.03% SDS, 1 mM EDTA and 1% DMSO. The reaction is initiated by the addition of the fluorogenic peptide substrate, Suc-LLVY-AMC (Bachem I-1395), at a concentration of 40 μM. After 60 minutes of incubation at 37° C., fluorescence intensity is measured at λex=350 nm and λem=450 nm with a fluorescence reader (Perkin Elmer Envision reader or equivalent).
(§2) Unless indicated otherwise the results are obtained after incubation for 20 minutes.

[2] = biological target: Beta5 (purified human constitutive proteasome) (Homo sapiens, UniProt P28074); assay: Determination of Beta5 activity (fluorescence intensity assay, Suc-LLVY-AMC); type: biochemical
Procedure: Determination of Beta5 Activity
Measurement of Beta5 inhibition is performed in 384 well format based on fluorescence intensity assay.
as §1, with “constitutive proteasome (1.25” for “immunoproteasome (0.25”
as §2

Row | Structure (SMILES) | IC50 ([1]; incubation for 20 minutes) | IC50 ([2]; incubation for 20 minutes) | Selectivity LMP7 vs Beta5 ([2]; incubation for 20 minutes) | other results
1 | CCN(CCC(=O)N[C@@H](Cc1ccc(F)cc1)B(O)O)C(=O)c1ccc(OC)cc1 [Compound No. 25, [(1R)-1-[3-[ethyl-(4-methoxybenzoyl)amino]propanoylamino]-2-(4-fluorophenyl)ethyl]boronic acid] | < 50 nM | 500 to 5000 nM | ++++ (++++: 50 ≤ Selectivity < 70) | –
2 | CCN(CC(=O)N[C@@H](Cc1ccc(C)cc1C)B(O)O)C(=O)CSC [Compound No. 36, [(1R)-2-(2,4-dimethylphenyl)-1-[[2-[ethyl-(2-methylsulfanylacetyl)-amino]acetyl]amino]ethyl]boronic acid] | 50 to 500 nM | > 5000 nM | ++++ (++++: 50 ≤ Selectivity < 70) | –
3 | CCN(CC(=O)N[C@@H](Cc1ccccc1)B(O)O)C(=O)c1ccccc1 [Compound No. 17, [(1R)-1-[[2-[benzoyl(ethyl)amino]acetyl]amino]-2-phenyl-ethyl]boronic acid] | 50 to 500 nM | – | – | –
4 | CCN(CC(=O)N[C@@H](Cc1coc2c(C)cccc12)B(O)O)S(=O)(=O)c1ccc(C)cc1 [Compound No. 43, [(1R)-1-[[2-[ethyl(p-tolylsulfonyl)amino]acetyl]amino]-2-(7-methylbenzofuran-3-yl)ethyl]boronic acid] | – | – | – | IC50 ([1]; long incubation (120 min)): 50 to 500 nM; IC50 ([2]; long incubation (120 min)): > 5000 nM; Selectivity LMP7 vs Beta5 ([2]; long incubation (120 min)): +++++ (+++++: Selectivity ≥ 70)
5 | CCN(CCC(=O)N[C@@H](Cc1ccc(F)cc1)B(O)O)C(=O)c1ccc(C(F)(F)F)cc1 [Compound No. 27, [(1R)-1-[3-[ethyl-[4-(trifluoromethyl)benzoyl]amino]propanoylamino]-2-(4-fluorophenyl)ethyl]boronic acid] | < 50 nM | 50 to 500 nM | +++ (+++: 30 ≤ Selectivity < 50) | –
6 | CCN(CCC(=O)N[C@@H](Cc1ccc(F)cc1)B(O)O)C(=O)c1ccc(Cl)cc1 [Compound No. 26, [(1R)-1-[3-[(4-chlorobenzoyl)-ethyl-amino]propanoylamino]-2-(4-fluorophenyl)ethyl]boronic acid] | < 50 nM | 50 to 500 nM | ++++ (++++: 50 ≤ Selectivity < 70) | –
7 | CCC(=O)N(CC(=O)N[C@@H](Cc1ccc(C)cc1C)B(O)O)c1ccccc1 [Compound No. 34, [(1R)-2-(2,4-dimethylphenyl)-1-[[2-(N-propanoylanilino)acetyl]amino]-ethyl]boronic acid] | < 50 nM | 500 to 5000 nM | +++++ (+++++: Selectivity ≥ 70) | –
8 | CS(=O)(=O)CCC(=O)N[C@@H](Cc1coc2ccccc12)B(O)O [Compound No. 23, [(1R)-2-(benzofuran-3-yl)-1-(3-methylsulfonylpropanoylamino)ethyl]-boronic acid] | < 50 nM | – | – | –
9 | Cc1ccc(C[C@H](NC(=O)CCN(C(C)C)S(C)(=O)=O)B(O)O)cc1 [Compound No. 15, [(1R)-1-[3-[isopropyl(methylsulfonyl)amino]propanoylamino]-2-(p-tolyl)ethyl]boronic acid] | 50 to 500 nM | – | – | –
10 | CCN(CCC(=O)N[C@@H](Cc1ccc(F)cc1)B(O)O)C(=O)c1ccc(C#N)cc1 [Compound No. 28, [(1R)-1-[3-[(4-cyanobenzoyl)-ethyl-amino]propanoylamino]-2-(4-fluorophenyl)ethyl]boronic acid] | < 50 nM | 500 to 5000 nM | ++++ (++++: 50 ≤ Selectivity < 70) | –
11 | CC(C)N(CCC(=O)N[C@@H](Cc1ccccc1)B(O)O)C(=O)c1ccccc1 [Compound No. 9, [(1R)-1-[3-[benzoyl(isopropyl)amino]propanoylamino]-2-phenyl-ethyl]boronic acid] | 50 to 500 nM | 500 to 5000 nM | +++ (+++: 30 ≤ Selectivity < 50) | –
12 | CCS(=O)(=O)N(CCC(=O)N[C@@H](Cc1ccc(C)cc1)B(O)O)c1ccccc1 [Compound No. 2, [(1R)-1-[3-(N-ethylsulfonylanilino)propanoylamino]-2-(p-tolyl)ethyl]boronic acid] | < 50 nM | – | – | –
13 | CCc1cccc(C[C@H](NC(=O)CCS(C)(=O)=O)B(O)O)c1 [Compound No. 20, [(1R)-2-(3-ethylphenyl)-1-(3-methylsulfonylpropanoylamino)ethyl]-boronic acid] | 50 to 500 nM | 500 to 5000 nM | +++ (+++: 30 ≤ Selectivity < 50) | –
14 | CCN(CCC(=O)N[C@@H](Cc1ccccc1)B(O)O)C(=O)c1ccccc1C [Compound No. 12, [(1R)-1-[3-[ethyl-(2-methylbenzoyl)amino]propanoylamino]-2-phenyl-ethyl]boronic acid] | 50 to 500 nM | – | – | –
15 | CCN(CC(=O)N[C@@H](Cc1ccc(C)cc1C)B(O)O)S(=O)(=O)c1ccc(C)cc1 [Compound No. 30, [(1R)-2-(2,4-dimethylphenyl)-1-[[2-[ethyl(p-tolylsulfonyl)amino]acetyl]-amino]ethyl]boronic acid] | < 50 nM | 500 to 5000 nM | +++++ (+++++: Selectivity ≥ 70) | –
16 | CCN(CCC(=O)N[C@@H](Cc1ccc(C)cc1)B(O)O)S(=O)(=O)CC [Compound No. 11, [(1R)-1-[3-[ethyl(ethylsulfonyl)amino]propanoylamino]-2-(p-tolyl)ethyl]boronic acid] | < 50 nM | – | – | –
17 | Cc1ccc(C[C@H](NC(=O)CCN(c2ccccc2)S(C)(=O)=O)B(O)O)cc1 [Compound No. 3, [(1R)-1-[3-(N-methylsulfonylanilino)propanoylamino]-2-(p-tolyl)ethyl]boronic acid] | < 50 nM | 50 to 500 nM | +++ (+++: 30 ≤ Selectivity < 50) | –
18 | Cc1ccc(C[C@H](NC(=O)CCN(C)S(=O)(=O)c2ccccc2)B(O)O)cc1 [Compound No. 7, [(1R)-1-[3-[benzenesulfonyl(methyl)amino]propanoylamino]-2-(p-tolyl)ethyl]boronic acid] | < 50 nM | – | – | –
19 | CC(=O)N(CCC(=O)N[C@@H](Cc1ccccc1)B(O)O)c1ccccc1 [Compound No. 1, [(1R)-1-[3-(N-acetylanilino)propanoylamino]-2-phenyl-ethyl]boronic acid] | 50 to 500 nM | – | – | –
20 | Cc1ccc(C[C@H](NC(=O)CCN(C(C)C)S(=O)(=O)c2ccccc2)B(O)O)cc1 [Compound No. 6, [(1R)-1-[3-[benzenesulfonyl(isopropyl)amino]propanoylamino]-2-(p-tolyl)ethyl]boronic acid] | < 50 nM | – | – | –
21 | CCN(CCC(=O)N[C@@H](Cc1ccccc1)B(O)O)C(=O)c1cccc(C)c1 [Compound No. 13, [(1R)-1-[3-[ethyl-(3-methylbenzoyl)amino]propanoylamino]-2-phenyl-ethyl]boronic acid] | 50 to 500 nM | – | – | –
22 | CCN(CCC(=O)N[C@@H](Cc1ccc(C)cc1)B(O)O)S(=O)(=O)c1ccccc1 [Compound No. 5, [(1R)-1-[3-[benzenesulfonyl(ethyl)amino]propanoylamino]-2-(p-tolyl)ethyl]boronic acid] | < 50 nM | – | – | –
23 | CN(CCC(=O)N[C@@H](Cc1ccccc1)B(O)O)C(=O)c1ccccc1 [Compound No. 10, [(1R)-1-[3-[benzoyl(methyl)amino]propanoylamino]-2-phenyl-ethyl]boronic acid] | 50 to 500 nM | – | – | –
24 | CCc1cccc(C[C@H](NC(=O)CCCCS(C)(=O)=O)B(O)O)c1 [Compound No. 22, [(1R)-2-(3-ethylphenyl)-1-(5-methylsulfonylpentanoylamino)ethyl]-boronic acid] | 50 to 500 nM | – | – | –
